Results filed as inconclusive are left out. Calls of active or inactive are those of the source. How the calls were made is not given here.
Target: Procathepsin L (Homo sapiens) (UniProt P07711)
Test: IC50 of CTSL protease blockers – biochemical, confirmation, dose response (AID 825)
Details: purified cathepsin L enzyme activity, signal read-out

Sequence of Procathepsin L (Homo sapiens) (P07711 114-288 limits assumed): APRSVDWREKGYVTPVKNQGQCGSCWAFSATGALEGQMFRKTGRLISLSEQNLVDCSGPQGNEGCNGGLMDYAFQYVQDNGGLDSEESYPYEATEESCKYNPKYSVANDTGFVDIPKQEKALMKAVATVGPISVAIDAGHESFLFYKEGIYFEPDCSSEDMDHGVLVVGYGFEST
Sequence of Procathepsin L (Homo sapiens) (P07711 292-333 limits assumed): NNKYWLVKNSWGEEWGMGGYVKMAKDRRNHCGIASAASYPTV

| IC50 | Compound |
| --- | --- |
| > 50 µM (inactive) | COc1ccc(OC)c(C2C(C#N)=C(N)Oc3cc(C)n(Cc4ccccn4)c(=O)c32)c1 (configuration not stated) |
| > 50 µM (inactive) | CC(=O)Nc1nc2n(n1)C(c1ccc(F)cc1)C=C(c1ccccc1)N2 (configuration not stated) |

— PubChem BioAssay AID825 (PCMD, 2007)
